This is an account of results in US5522922A, “Aqueous ink composition” (priority 1993, dated 1996).

A short description of the data set: LD50, oral dosing of mice or rabbits. As to conditions: in vivo. The text has this: LD50 means a lethal dose (mg/kg) necessary to kill more than half of examined mice or rabbits when the mice or rabbits are orally dosed with a certain concentration. Safety improves as LD50 increases.
As is clear from Table 11, an aqueous ink composition of the present invention is 5 to 8 times more safe than a conventional aqueous ink composition. Therefore, to maintain this standard of safety, triethanolamine used in the present invention is limited to triethanolamine meeting the standards described in the present specification and the Japanese Standards of Cosmetic Ingredient (Yakuji Nippo, Ltd., second edition).

`CCN(CC)N=O` [Diethyl nitrosamine, diethyl nitrosamine] gave a median lethal dose (LD50) of 15 mg/kg.

As usually defined, the LD50 is the dose expected to kill half of the subjects tested. Lower therefore signals a more toxic substance.
